Here are results for one compound from patent US20230148605A1, “APPLICATION OF GERANIOL IN PREPARATION OF FORMULATION FOR PROMOTING SYNTHESIS OF PSEUDOMONAS AERUGINOSA 3OC12-HSL SIGNAL MOLECULES” (priority 2021, published 2023).

Common to all, as to assay type: cell-based
Experiment [1] concerns Pseudomonas aeruginosa PAO1. Nature of the experiment: Influence of geraniol on Pseudomonas aeruginosa PAO1 growth (growth curve, OD600, Bioscreen C). As to the method: An LB medium and geraniol were respectively added to test tubes, joined with the PAO1 bacterial suspension in the exponential growth phase, to make total volumes all reach 10 mL, so that PAO1 bacterial concentrations were all 10^6 CFU/mL, and concentrations of geraniol were respectively 0 μL/mL (control), 0.313 μL/mL, 0.625 μL/mL, 1.25 μL/mL, and 2.5 μL/mL. Samples from the experimental groups were respectively added to a honeycomb culture plate dedicated to an automatic growth curve analyzer (Bioscreen C), which has each well added with 350 μL culture medium; and each experimental group has three parallel experiments. The honeycomb culture plate was placed in the automatic growth curve analyzer, for shaking culture at 37° C. for 3 days, with OD600 measured every hour. Taking OD600 as an ordinate and culture time as an abscissa, a growth curve of PAO1 under an action of geraniol was drawn to study influence of geraniol on PAO1 growth.

The subject of experiment [2] is key genes in the Pseudomonas aeruginosa quorum sensing system and virulent genes regulated thereby. Nature of the experiment: Influence of geraniol on expression of key quorum sensing genes and regulated virulent genes (real-time fluorescent quantitative PCR). Conditions: 1.25 μL/mL geraniol, 5 h, PAO1. The protocol: The PAO1 bacterial suspension in a logarithmic growth phase was added to 50 mL sterile LB liquid medium to make a final concentration of the bacterial solution reach 10^6 CFU/mL. Geraniol was added to make a final concentration become 0 μL/mL (three biological replicates in a control group were respectively named A1, A2 and A3) and 1.25 μL/mL (three biological replicates in an experimental group were respectively named B1, B2 and B3); the respective groups were cultured at 37° C. and 180 rpm for 5 h, centrifuged to collect Bacteria, and then snap-frozen at −80° C. for later use.
Total bacterial RNA was extracted with a kit of Trizol (Thermo Company). After extraction, purity of RNA was detected with an ultra-micro spectrophotometer (Implen, Munich, Germany). An A260/A280 value of each RNA sample should be between 1.8 and 2.0. Reverse transcription and real-time fluorescent quantitative PCR amplification were performed with the PrimeScript RT Master Mix kit (Takara, Dalian, China) and the ETC 811 PCR instrument (Beijing Eastwin Life Sciences, Inc.). A q-PCR reaction system adopted Takara's SYBR Premix Ex TaqII (Tli RNaseH Plus) (Code No. RR820A); the PCR program was pre-denaturation at 95° C. for 30 s; denaturation at 95° C. for 5 s, annealing at 60° C. for 34 s, 40 loops; according to the 10 gene sequences already published on the GenBank website, primers for q-PCR were designed with Primer Premier 5.0 software, and meanwhile, the 16SrRNA gene was used as an internal reference gene.
Table 1 Genes and primer sequences thereof used in real-time fluorescent quantitative PCR

Experiment [3] shares this test system. The description is as above. Conditions: low concentration of geraniol (0.313 to 2.5 μL/mL), PAO1; concluded from the experiments.

In the case of `CC(C)=CCC/C(C)=C/CO` [geraniol, Geraniol], the “growth of PAO1 cells (OD600 growth curve)” value in experiment [1] (geraniol 0.313, 0.625, 1.25 and 2.5 μL/mL, LB, 37° C., 3 days) was “slightly inhibit growth”. Besides, the “concentration dependence of effect on growth of PAO1 cells” value in experiment [1] (geraniol 0.313 to 2.5 μL/mL) is “concentration-dependent inhibitory effect”. In experiment [1] (geraniol 2.5 μL/mL), the “antibacterial activity compared with other geraniol groups” value is “highest antibacterial activity”. Moreover, the “bacterial proliferation rate in the logarithmic growth phase” value in experiment [1] (geraniol 2.5 μL/mL, versus other groups) was “significantly lower than other groups”. Further, in experiment [2], the “expression level of pelF” value is reported as “not significantly down-regulated”, the “expression level of pslB” value was “not significantly down-regulated”, the “expression level of the signal molecule synthase encoding gene rhl (rhl system)” value is “does not change significantly” and the “expression level of toxA” value was “not significantly down-regulated”. Moreover, in experiment [2], the “expression level of virulent gene chiC” value is on record as “significantly down-regulated”, the “expression level of virulent gene lasA” value was “significantly down-regulated”, the “expression level of virulent gene lasB” value is “significantly down-regulated” and the “expression level of virulent gene phzM” value is listed as “significantly down-regulated”. In experiment [2], the “expression of lasI (signal molecule synthase gene, las system)” value is listed as “up-regulated”; the “expression of lasR (signal molecule receptor protein gene, las system)” value is “down-regulated”; the “expression of pqsA (signal molecule synthase gene, pqs system)” value is given as “down-regulated”; the “expression of pqsR (signal molecule receptor protein gene, pqs system)” value is given as “up-regulated”. Also, the “expression of rhlR (signal molecule receptor protein gene, rhl system)” value in experiment [2] is reported as “down-regulated”. Besides, the “synthesis of 3OC12-HSL signal molecules” value in experiment [3] is “significantly promote synthesis”.
